Data reported in patent publication US12528816B2, “Substituted imidazo [1,2-b] pyridazines and [1, 2, 4] triazolo [ 4,3-b] pyridazines as camkii inhibitors” (Cardurion Pharmaceuticals, INC., priority 2020, dated 2026).

target: T1, human CaMKIIδ (Homo sapiens, UniProt Q13557); test: Evaluation of in vitro CaMKII inhibitory activity (binding assay, TR-FRET); settings: human CaMKIIδ, TR-FRET binding assay; class symbols A/B/C; read-out: Act (CaMKII inhibitory activity, binding assay)
T1 construct: Full-length, glutathione-S-transferase(GST)-tagged, human CaMKIIδ was purchased from Carna Biosciences; purchased Carna Biosciences (CaMKIIδ); Wako Pure Chemical Industries (calmodulin) 02-111
Protocol: Evaluation of In Vitro CaMKII Inhibitory Activity (Binding Assay)
In vitro CaMKIIδ inhibitory activity was evaluated by a binding assay.
Full-length bovine calmodulin was purchased from Wako Pure Chemical Industries (Osaka, Japan). Terbium-labeled anti-GST anti body (Tb-anti-GST Ab) was purchased from Life Technologies (Carlsbad, CA, USA). Fluorescent probe ligand, 5,5-difluoro-7,9-dimethyl-3-(3-oxo-3-((3-((4-(3-(piperazin-1-yl)phenyl)pyrimidin-2-yl)amino)phenyl)amino) propyl)-5H-dipyrrolo[1,2-c:2′,1′-f]
Time-resolved fluorescence resonance energy transfer (TR-FRET) assay
The fluorescent probe ligand, 5,5-difluoro-7,9-dimethyl-3-(3-oxo-3-((3-((4-(3-(piperazin-1-yl)phenyl)pyrimidin-2-yl)amino)phenyl)amino) propyl)-5H-dipyrrolo[1,2-c:2′,1′-f] […] After shaded incubation of the protein-probe mixture on ice for 30 min, the premix was dispensed in the assay plate including test inhibitors with 4 fold dilution series of eight concentrations. After 1 hr incubation at room temperature, TR-FRET signals were measured in duplicate using an EnVision microplate reader (Perkin Elmer, Waltham, MA, USA).
The half maximal inhibitory concentration (IC50) of test compounds was calculated by fitting the data with the logistic equation using XLfit (IDBS, Guildford, UK).

Structure (SMILES)	IC50
C[C@@H](Cn1cnnn1)Oc1cccc(-c2ccc3ncn(-c4cc(F)cc(O)c4C#N)c3n2)n1 [Example 472, 4-fluoro-2-hydroxy-6-[5-(6-{[(2S)-1-(1H-tetrazol-1-yl)propan-2-yl]oxy}pyridin-2-yl)-3H-imidazo[4,5-b]pyridin-3-yl]benzonitrile]	< 10 nM
[2H]C([2H])([2H])Oc1ccnc(-c2cnc3ccc(-c4ccc(F)c(O[C@@H](C)Cn5cnnn5)c4)nn23)c1C#N [Example 473, 2-[6-(4-fluoro-3-{[(2S)-1-(1H-tetrazol-1-yl)propan-2-yl]oxy}phenyl)imidazo[1,2-b]pyridazin-3-yl]-4-(methoxy-d3)pyridine-3-carbonitrile]	< 10 nM
[2H]C([2H])([2H])Oc1cc(F)cc(-n2cnc3ccc(-c4cccc(O[C@@H](C)Cn5cnnn5)n4)nc32)c1C#N [Example 474, 4-fluoro-2-(methoxy-d3)-6-[5-(6-{[(2S)-1-(1H-tetrazol-1-yl)propan-2-yl]oxy}pyridin-2-yl)-3H-imidazo[4,5-b]pyridin-3-yl]benzonitrile]	< 10 nM
COc1ccnc(-c2cnc3ccc(-c4ccc(F)c(O[C@@H](CF)Cn5cnnn5)c4)nn23)c1C#N [Example 475, 2-[6-(4-fluoro-3-{[(2R)-1-fluoro-3-(1H-tetrazol-1-yl)propan-2-yl]oxy}phenyl)imidazo[1,2-b]pyridazin-3-yl]-4-methoxypyridine-3-carbonitrile]	< 10 nM
COc1ccnc(-c2cnc3ccc(-c4ccc(F)c(O[C@@H](CO)Cn5cnnn5)c4)nn23)c1C#N [Example 477, 2-[6-(4-fluoro-3-{[(2R)-1-hydroxy-3-(1H-tetrazol-1-yl)propan-2-yl]oxy}phenyl)imidazo[1,2-b]pyridazin-3-yl]-4-methoxypyridine-3-carbonitrile]	< 10 nM
COc1ccnc(-c2cnc3ccc(-c4ccc(F)c(N[C@@H](C)Cn5cnnn5)c4)nn23)c1C#N [Example 478, 2-[6-(4-fluoro-3-{[(2S)-1-(1H-tetrazol-1-yl)propan-2-yl]amino}phenyl)imidazo[1,2-b]pyridazin-3-yl]-4-methoxypyridine-3-carbonitrile]	< 10 nM
COC(=O)c1cccc(-c2cnn3ccc(-c4ccc(C#N)c(O[C@@H](C)Cn5cnnn5)c4)nc23)c1 [compound 2, methyl 3-[5-(4-cyano-3-{[(2S)-1-(1H-tetrazol-1-yl)propan-2-yl]oxy}phenyl)pyrazolo[1,5-a]pyrimidin-3-yl]benzoate]	> 100 nM
C[C@@H](Cn1cnnn1)Oc1cc(-c2ccn3ncc(-c4cccs4)c3n2)ccc1F [compound 3]	< 10 nM
C[C@@H](Cn1cnnn1)Oc1cc(-c2ccn3ncc(-c4ccccn4)c3n2)ccc1F [compound 4]	< 10 nM
C[C@@H](Cn1cnnn1)Oc1cc(-c2ccn3ncc(-c4ccccc4)c3n2)ccc1F [compound 5]	< 10 nM
COC(=O)c1cccc(-c2cnn3ccc(-c4ccc(F)c(O[C@@H](C)Cn5cnnn5)c4)nc23)c1 [compound 6]	< 10 nM
C[C@@H](Cn1cnnn1)Oc1cc(-c2ccn3ncc(-c4cccc(C(=O)O)c4)c3n2)ccc1F [compound 7]	< 10 nM
CCNC(=O)c1cccc(-c2cnn3ccc(-c4ccc(F)c(O[C@@H](C)Cn5cnnn5)c4)nc23)c1 [compound 8]	< 10 nM
COCCCNC(=O)c1cccc(-c2cnn3ccc(-c4ccc(F)c(O[C@@H](C)Cn5cnnn5)c4)nc23)c1 [compound 9]	< 10 nM
C[C@@H](Cn1cnnn1)Oc1cc(-c2ccn3ncc(-c4cccc(C(=O)N5CCC(N6CCOCC6)CC5)c4)c3n2)ccc1F [compound 10]	< 10 nM
CCN(CC)CCNC(=O)c1cccc(-n2cnc3ccc(-c4ccc(C#N)c(O[C@@H](C)Cn5cnnn5)c4)nc32)c1 [compound 11]	> 100 nM
CCN(CC)CCNC(=O)c1cccc(-n2cnc3ccc(-c4ccc(F)c(O[C@@H](C)Cn5cnnn5)c4)nc32)c1 [compound 12]	< 10 nM
COC(=O)c1cccc(-n2cnc3ccc(-c4ccc(F)c(O[C@@H](C)Cn5cnnn5)c4)nc32)c1 [compound 13]	< 10 nM
COC(=O)c1ccnc(-n2cnc3ccc(-c4ccc(F)c(O[C@@H](C)Cn5cnnn5)c4)nc32)c1 [compound 14]	< 10 nM

Structure (SMILES)	IC50
C[C@@H](Cn1cnnn1)Oc1cccc(-c2ccn3ncc(-c4ccc(N5CCOCC5)cc4)c3n2)c1 [compound 15]	10 to 100 nM
C[C@@H](Cn1cnnn1)Oc1cccc(-c2ccn3ncc(-c4cccc(C(=O)O)c4)c3n2)c1 [compound 16]	< 10 nM
C[C@@H](Cn1cnnn1)Oc1cc(-c2ccc3ncc(-c4cccs4)n3c2)ccc1F [compound 17]	10 to 100 nM
C[C@@H](Cn1cnnn1)Oc1cc(-c2ccn3ncc(-c4ccco4)c3n2)ccc1F [compound 18]	< 10 nM
C[C@@H](Cn1cnnn1)Oc1cc(-c2ccn3ncc(-c4ccoc4)c3n2)ccc1F [compound 19]	< 10 nM
C[C@@H](Cn1cnnn1)Oc1cc(-c2ccn3ncc(-c4cccnc4)c3n2)ccc1F [compound 20]	< 10 nM
C[C@@H](Cn1cnnn1)Oc1cc(-c2ccn3ncc(-c4ccncc4)c3n2)ccc1F [compound 21]	< 10 nM
C[C@@H](Cn1cnnn1)Oc1cc(-c2ccn3ncc(-c4cncnc4)c3n2)ccc1F [compound 22]	< 10 nM
C[C@@H](Cn1cnnn1)Oc1cc(-c2ccn3ncc(-c4cnn(C)c4)c3n2)ccc1F [compound 23]	< 10 nM
C[C@@H](Cn1cnnn1)Oc1cc(-c2ccn3ncc(-c4ccnn4C)c3n2)ccc1F [compound 24]	10 to 100 nM
C[C@@H](Cn1cnnn1)Oc1cc(-c2ccn3ncc(-c4ccn(C)n4)c3n2)ccc1F [compound 25]	< 10 nM
C[C@@H](Cn1cnnn1)Oc1cc(-c2ccn3ncc(-c4ccsc4)c3n2)ccc1F [compound 26]	< 10 nM
C[C@@H](Cn1cnnn1)Oc1cc(-c2ccn3ncc(-c4cncs4)c3n2)ccc1F [compound 27]	< 10 nM
C[C@@H](Cn1cnnn1)Oc1cc(-c2ccn3ncc(-c4ccccc4C#N)c3n2)ccc1F [compound 28]	< 10 nM
C[C@@H](Cn1cnnn1)Oc1cc(-c2ccn3ncc(-c4cccc(C#N)c4)c3n2)ccc1F [compound 29]	< 10 nM
COc1ccc(-c2cnn3ccc(-c4ccc(F)c(O[C@@H](C)Cn5cnnn5)c4)nc23)cc1 [compound 30]	< 10 nM
COc1ccccc1-c1cnn2ccc(-c3ccc(F)c(O[C@@H](C)Cn4cnnn4)c3)nc12 [compound 31]	< 10 nM
COc1cccc(-c2cnn3ccc(-c4ccc(F)c(O[C@@H](C)Cn5cnnn5)c4)nc23)c1 [compound 32]	< 10 nM
C[C@@H](Cn1cnnn1)Oc1cc(-c2ccn3ncc(-c4cccc(OCC#N)c4)c3n2)ccc1F [compound 33]	< 10 nM

Structure (SMILES)	IC50
CNC(=O)c1ccccc1-c1cnn2ccc(-c3ccc(F)c(O[C@@H](C)Cn4cnnn4)c3)nc12 [compound 34]	> 100 nM
CNC(=O)c1cccc(-c2cnn3ccc(-c4ccc(F)c(O[C@@H](C)Cn5cnnn5)c4)nc23)c1 [compound 35]	< 10 nM
CC(=O)Nc1cccc(-c2cnn3ccc(-c4ccc(F)c(O[C@@H](C)Cn5cnnn5)c4)nc23)c1 [compound 36]	< 10 nM
CNC(=O)c1ccc(-c2cnn3ccc(-c4ccc(F)c(O[C@@H](C)Cn5cnnn5)c4)nc23)cc1 [compound 37]	< 10 nM
CC(=O)Nc1ccc(-c2cnn3ccc(-c4ccc(F)c(O[C@@H](C)Cn5cnnn5)c4)nc23)cc1 [compound 38]	< 10 nM
CC(=O)Nc1ccccc1-c1cnn2ccc(-c3ccc(F)c(O[C@@H](C)Cn4cnnn4)c3)nc12 [compound 39]	> 100 nM
C[C@@H](Cn1cnnn1)Oc1cc(-c2ccn3ncc(-c4cccc(CN(C)C)c4)c3n2)ccc1F [compound 40]	< 10 nM
C[C@@H](Cn1cnnn1)Oc1cc(-c2ccn3ncc(-c4ccc(CN(C)C)cc4)c3n2)ccc1F [compound 41]	< 10 nM
CC(=O)N1CCN(c2ccc(-c3cnn4ccc(-c5ccc(F)c(O[C@@H](C)Cn6cnnn6)c5)nc34)cc2)CC1 [compound 42]	10 to 100 nM
COCCOc1ccccc1-c1cnn2ccc(-c3ccc(F)c(O[C@@H](C)Cn4cnnn4)c3)nc12 [compound 43]	< 10 nM
COCCOc1ccc(-c2cnn3ccc(-c4ccc(F)c(O[C@@H](C)Cn5cnnn5)c4)nc23)cc1 [compound 44]	10 to 100 nM
C[C@@H](Cn1cnnn1)Oc1cc(-c2ccn3ncc(-c4ccccc4OC(F)(F)F)c3n2)ccc1F [compound 45]	10 to 100 nM
C[C@@H](Cn1cnnn1)Oc1cc(-c2ccn3ncc(-c4cccc(OC(F)(F)F)c4)c3n2)ccc1F [compound 46]	10 to 100 nM
C[C@@H](Cn1cnnn1)Oc1cc(-c2ccn3ncc(-c4cccc(N5CCOCC5)c4)c3n2)ccc1F [compound 47]	10 to 100 nM
C[C@@H](Cn1cnnn1)Oc1cc(-c2ccn3ncc(-c4ccccc4N4CCOCC4)c3n2)ccc1F [compound 48]	10 to 100 nM
C[C@@H](Cn1cnnn1)Oc1cc(-c2ccn3ncc(-c4ccc(N5CCOCC5)cc4)c3n2)ccc1F [compound 49]	10 to 100 nM
C[C@@H](Cn1cnnn1)Oc1cc(-c2ccn3ncc(-c4cccc(F)c4)c3n2)ccc1F [compound 50]	< 10 nM
C[C@@H](Cn1cnnn1)Oc1cc(-c2ccn3ncc(-c4ccc(F)cc4)c3n2)ccc1F [compound 51]	< 10 nM
